pIC50: −log10 of the molar value.
Key:
Pa RmlA = Pa RmlA (Pseudomonas aeruginosa, UniProt Q9HU22); test: inhibition of reconstituted RmlA activity; type: biochemical
SALTY RmlA = SALTY RmlA (Salmonella enterica, UniProt P26393); test: inhibition of reconstituted RmlA activity; type: biochemical
E. coli RmlA = E. coli RmlA (Escherichia coli, UniProt P37744); test: inhibition of reconstituted RmlA activity; type: biochemical
Mtb RmlA = Mtb RmlA (Mycobacterium tuberculosis, UniProt P9WH13); test: biochemical
Chain of Mtb RmlA (P9WH13 whole entry): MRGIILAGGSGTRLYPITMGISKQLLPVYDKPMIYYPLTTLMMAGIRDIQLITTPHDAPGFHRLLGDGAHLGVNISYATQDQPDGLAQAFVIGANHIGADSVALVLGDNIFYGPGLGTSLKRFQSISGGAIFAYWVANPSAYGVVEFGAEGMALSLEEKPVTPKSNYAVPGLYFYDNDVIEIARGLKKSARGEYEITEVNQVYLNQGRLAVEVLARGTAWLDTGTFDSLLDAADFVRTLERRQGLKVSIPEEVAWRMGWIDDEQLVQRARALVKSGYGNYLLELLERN

Chain of SALTY RmlA (P26393 whole entry): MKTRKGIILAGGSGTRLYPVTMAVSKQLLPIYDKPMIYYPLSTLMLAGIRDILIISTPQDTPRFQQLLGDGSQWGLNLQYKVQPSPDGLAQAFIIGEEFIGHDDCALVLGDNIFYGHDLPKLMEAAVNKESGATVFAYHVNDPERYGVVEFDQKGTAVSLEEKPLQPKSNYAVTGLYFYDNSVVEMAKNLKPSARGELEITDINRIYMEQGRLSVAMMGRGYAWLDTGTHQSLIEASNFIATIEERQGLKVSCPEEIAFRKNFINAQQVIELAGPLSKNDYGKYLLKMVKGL
Chain of E. coli RmlA (P37744 whole entry): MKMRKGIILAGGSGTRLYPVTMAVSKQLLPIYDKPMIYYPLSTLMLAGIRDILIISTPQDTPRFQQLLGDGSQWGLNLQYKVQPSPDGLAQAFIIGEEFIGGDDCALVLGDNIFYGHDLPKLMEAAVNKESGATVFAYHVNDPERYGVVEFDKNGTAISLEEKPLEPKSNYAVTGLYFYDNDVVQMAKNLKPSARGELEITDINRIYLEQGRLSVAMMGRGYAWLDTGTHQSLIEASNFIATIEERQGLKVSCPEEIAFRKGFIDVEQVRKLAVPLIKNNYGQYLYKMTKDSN
Chain of Pa RmlA (Q9HU22 1-293): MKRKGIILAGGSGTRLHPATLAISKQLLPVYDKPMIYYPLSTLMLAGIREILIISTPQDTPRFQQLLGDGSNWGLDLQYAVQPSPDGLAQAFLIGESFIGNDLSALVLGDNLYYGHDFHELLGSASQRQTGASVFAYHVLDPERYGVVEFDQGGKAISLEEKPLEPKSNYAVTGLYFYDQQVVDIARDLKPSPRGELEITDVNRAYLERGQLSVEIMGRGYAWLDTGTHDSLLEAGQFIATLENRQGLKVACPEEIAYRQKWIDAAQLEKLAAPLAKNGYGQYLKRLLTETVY

Cc1cn([C@H]2C[C@H](O)[C@@H](COP(=O)(O)OP(=O)(O)O[C@H]3O[C@@H](C)[C@@H](O)[C@@H](O)[C@H]3O)O2)c(=O)[nH]c1=O [compound 2, dTDP-β-L-6dTal]
pIC50 (Pa RmlA): 3.51

Cc1cn([C@H]2C[C@H](O)[C@@H](COP(=O)(O)OP(=O)(O)O[C@@H]3O[C@@H](C)[C@H](O)[C@@H](O)[C@H]3O)O2)c(=O)[nH]c1=O [compound 10, dTDP-α-L-Rha (α-anomer 10)]
pIC50 (Pa RmlA): 3.60 | pIC50 (SALTY RmlA): < 3.30 | pIC50 (E. coli RmlA): < 3.30 | pIC50 (Mtb RmlA): 3.30

Cc1cn([C@H]2C[C@H](O)[C@@H](COP(=O)(O)OP(=O)(O)O[C@H]3O[C@@H](C)[C@H](O)[C@@H](O)[C@H]3O)O2)c(=O)[nH]c1=O [compound 1, dTDP-β-L-Rha]
pIC50 (Pa RmlA): 4.60 | pIC50 (SALTY RmlA): 3.96 | pIC50 (E. coli RmlA): 3.86 | pIC50 (Mtb RmlA): 4.18

C[C@@H]1O[C@H](OP(=O)(O)OP(=O)(O)OC[C@H]2O[C@@H](n3ccc(=O)[nH]c3=O)[C@H](O)[C@@H]2O)[C@H](O)[C@H](O)[C@H]1O [compound 12, UDP-β-L-Rha]
pIC50 (Pa RmlA): 3.44

Cc1cn([C@H]2C[C@H](O)[C@@H](COP(=O)(O)OP(=O)(O)O[C@H]3O[C@@H](CO)[C@H](O)[C@@H](O)[C@H]3O)O2)c(=O)[nH]c1=O [compound 11, dTDP-β-L-Man]
pIC50 (Pa RmlA): 3.42 | pIC50 (SALTY RmlA): < 3.30 | pIC50 (E. coli RmlA): < 3.30 | pIC50 (Mtb RmlA): 3.34

— article PMC10375476, “Feedback Inhibition of Bacterial Nucleotidyltransferases by Rare Nucleotide L-Sugars Restricts Substrate Promiscuity” (Journal of the American Chemical Society, 2023)
